According to US20260217732A1, “WRN INHIBITOR” (SUZHOU PUHE BIOPHARMA CO., LTD., priority 2022, published 2026):
Read-outs that look alike come from different tables or passages of the source.

Key:
[1] = tested on: SW48 (MSI-H) colorectal cancer tumor cells; experiment: In vivo efficacy, SW48 xenograft in nude mice; parameters: species or system BALB/c nude mice; conditions: QD, oral; for TGI: 21 days; for Tumor Volume D 1: day 1; for Tumor volume D 21: day 21
Description: In vivo efficacy experiment in BALB/C nude mice. Details are as follows:
SW48 (MSI-H) colorectal cancer tumor cells were cultured (in an L15 medium with 10% fetal bovine serum), and inoculated into 6-8 week old female BALB/c nude mice (with body weight of about 20 g). All the mice were inoculated subcutaneously. The mice were raised in an SPF-grade experimental environment, and all the mice were free to take commercially certified standard diets. When the tumors grew to an average volume of about 160 mm^3 in mice, the test compound was orally administered daily. […] The tumor volume was measured with a two-dimensional caliper three times a week, and the animals were weighed every day. […] The volume calculation formula is: V=1/2a*b^2, where a represents the long diameter of the tumor and b represents the short diameter of the tumor.

WRN enzyme = molecular target: T1, WRN enzyme (Homo sapiens, UniProt Q14191); experiment: WRN helicase hydrolysis (unwinding) of double-stranded DNA, fluorescence assay; assay type: biochemical; conditions: 30 min pre-incubation, 60 min reaction
T1 construct: 10 μL (2×) of WRN enzyme solution was added
Description: • The molecules of the present disclosure were tested for their activities on the WRN helicase hydrolysis of double-stranded DNA (Table 1).
A working solution to be tested and a buffer were prepared. The compound to be tested was dissolved in DMSO and subjected to 4× dilution (with 10 μM final concentration as the starting concentration). 0.2 μL of the solution of the compound to be tested was added to the 384-well plate and 10 μL (2×) of WRN enzyme solution was added. The solution was incubated in the dark for 30 minutes. Then, 10 μL of a substrate detection solution containing double-stranded DNA was added to initiate the reaction (the DNA has a length of 19 bp, and labeled with TAMRA and BHQ2 at 3′ and 5′-ends, respectively). The solution was incubated at room temperature for 60 minutes. The inhibitory activities (IC50) against WRN enzyme were calculated based on the change of Ex530/Em590 in the blank group (DMSO) and the compound group.

[2] = tested on: SW48 colorectal cancer cells; experiment: 2D antiproliferation on MSI-H SW48 cells, CTG, 5 days; assay type: cell-based; conditions: for IC50 / inhibition at 38.15 pM / inhibition at 0.000152588 µM / inhibition at 0.000610352 µM / inhibition at 0.00244141 µM / inhibition at 0.00976562 µM / inhibition at 0.0390625 µM / inhibition at 0.15625 µM / inhibition at 0.625 µM / inhibition at […] / inhibition at 10 µM: Homo sapiens; for IC50: 120 h, SW48 MSI-H, 5 days; for inhibition at 38.15 pM: SW48, 0.038146973 nM; for inhibition at 0.000152588 µM: SW48, 0.152587891 nM; for inhibition at 0.000610352 µM: SW48, 0.610351563 nM; for inhibition at 0.00244141 µM: SW48, 2.44140625 nM; for inhibition at 0.00976562 µM: SW48, 9.765625 nM; for inhibition at 0.0390625 µM: SW48, 39.0625 nM; for inhibition at 0.15625 µM: SW48, 156.25 nM; for inhibition at 0.625 µM: SW48, 625 nM; for inhibition at […]: SW48, 2500 nM; for inhibition at 10 µM: SW48, 10000 nM; for inhibitory activity on SW48 cells: 39 nM
Description: The molecules of the present disclosure were tested for their anti-proliferative activity on MSI-H tumor cells.
SW48 colorectal cancer cells with MSI were cultured in a RMI1640 medium containing 10% FBS and 1% penicillin-streptomycin, and the mixture was cultured in a 37° C., 5% CO2 incubator. 40 μL of cell suspension was added to each well of a 384-well microplate. […] of compounds with different concentrations were added to each well using Echo, and the mixtures were cultured in a 37° C., 5% CO2 incubator for 5 days. 40 μL of CTG solution (Promega, Cat No. G7573) was added to each well and incubated in a 37° C., 5% CO2 incubator in the dark for 30 minutes. The luminescence value was read using an Envision multi-function microplate reader (Perkin Elmer, catalog number Envision 2104). The optical signal is proportional to the amount of ATP in the system, while the ATP content directly characterizes the number of viable cells in the system.

[3] = tested on: HT-29 colorectal cancer cells; experiment: 2D antiproliferation on MSS HT-29 cells, CTG, 5 days; assay type: cell-based; conditions: Homo sapiens, 120 h, HT-29 MSS
Description: The molecules of the invention were tested for their anti-proliferative activities on MSS tumor cells.
HT-29 colorectal cancer cells with MSS were cultured in a McCoy's 5A medium containing 10% FBS and 1% penicillin-streptomycin in a 37° C., 5% CO2 constant temperature incubator. 40 μL of cell suspension was added to each well of a 384-well microplate. […] of compounds with different concentrations were added to each well using Echo. The mixtures were cultured in a 37° C., 5% CO2 constant temperature incubator for 5 days. 40 μL of CTG solution (Promega, Cat No. G7573) was added to each well, and the mixture was incubated in a 37° C., 5% CO2 constant temperature incubator for 30 minutes in the dark. The luminescence value was read using an Envision multi-function microplate reader (Perkin Elmer, catalog number Envision 2104). The optical signal is proportional to the amount of ATP in the system, while the ATP content directly characterizes the number of viable cells in the system.

[4] = female, CD1, mouse, in vivo
Description: (§1) Mouse Pharmacokinetic Evaluation Experiment
(§2) CD1 female mice were used as test animals to be administered orally/intravenously (with oral dosage of 10 mg/kg or intravenous dosage of 2 mg/kg).
(§3) Experimental scheme: The oral administration group comprised 3 mice per group (Solvent: 10% Hβ-CD-pH7.4), and the intravenous group comprised 3 mice per group. […] The blood concentration in the plasma of mice was determined using the LC/MS/MS method after the oral or intravenous administration, respectively, and the collected data were calculated using the AB Sciex QTRAP 6500 software.

in vivo = conditions: female, CD1, mouse
Description: as §1, §2, §3

[5] = read-out: Average Value/Inhibition Rate
[6] = read-out: Test 1/Inhibition Rate
[7] = read-out: Test 2/Inhibition Rate

T1 sequence (Q14191 whole entry): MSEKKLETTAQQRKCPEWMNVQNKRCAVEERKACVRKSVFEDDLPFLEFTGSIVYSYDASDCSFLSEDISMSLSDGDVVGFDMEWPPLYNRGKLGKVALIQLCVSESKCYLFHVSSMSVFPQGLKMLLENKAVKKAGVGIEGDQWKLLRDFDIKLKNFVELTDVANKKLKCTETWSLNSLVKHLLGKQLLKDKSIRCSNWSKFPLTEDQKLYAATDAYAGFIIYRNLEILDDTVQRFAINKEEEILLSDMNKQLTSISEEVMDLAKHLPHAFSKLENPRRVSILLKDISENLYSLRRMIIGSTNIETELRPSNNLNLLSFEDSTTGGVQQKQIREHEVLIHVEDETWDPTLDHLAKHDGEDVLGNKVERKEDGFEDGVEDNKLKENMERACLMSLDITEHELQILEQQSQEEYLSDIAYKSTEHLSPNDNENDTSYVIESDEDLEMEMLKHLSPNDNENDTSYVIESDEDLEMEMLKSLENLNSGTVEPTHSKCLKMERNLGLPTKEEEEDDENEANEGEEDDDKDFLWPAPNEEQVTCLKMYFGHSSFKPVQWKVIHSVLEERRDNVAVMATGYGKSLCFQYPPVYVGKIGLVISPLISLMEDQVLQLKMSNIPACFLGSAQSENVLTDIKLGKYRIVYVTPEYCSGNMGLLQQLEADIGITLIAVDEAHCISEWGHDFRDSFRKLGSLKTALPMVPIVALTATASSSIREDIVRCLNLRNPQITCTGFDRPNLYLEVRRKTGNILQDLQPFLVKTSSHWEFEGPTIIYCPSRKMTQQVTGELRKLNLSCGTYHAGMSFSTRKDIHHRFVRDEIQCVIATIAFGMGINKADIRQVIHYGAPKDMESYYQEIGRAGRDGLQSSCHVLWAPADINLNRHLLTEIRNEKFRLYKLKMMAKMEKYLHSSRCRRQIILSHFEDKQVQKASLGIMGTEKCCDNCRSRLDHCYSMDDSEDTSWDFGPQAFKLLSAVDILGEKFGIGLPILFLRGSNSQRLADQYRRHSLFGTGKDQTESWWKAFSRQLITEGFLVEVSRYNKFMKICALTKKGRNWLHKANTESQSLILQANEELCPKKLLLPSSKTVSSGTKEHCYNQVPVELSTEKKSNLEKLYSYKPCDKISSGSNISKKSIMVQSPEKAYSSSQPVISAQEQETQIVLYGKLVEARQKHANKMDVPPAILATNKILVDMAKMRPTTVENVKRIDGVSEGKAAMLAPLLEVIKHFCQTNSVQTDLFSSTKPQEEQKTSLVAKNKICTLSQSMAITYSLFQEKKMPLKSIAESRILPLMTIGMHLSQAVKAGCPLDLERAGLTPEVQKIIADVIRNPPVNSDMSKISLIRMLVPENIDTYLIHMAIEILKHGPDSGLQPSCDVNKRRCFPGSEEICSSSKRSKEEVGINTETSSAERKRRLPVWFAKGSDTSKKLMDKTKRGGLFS

Row | Structure (SMILES) | IC50 (WRN enzyme) | IC50 [2] | IC50 [3] | inhibition at 38.15 pM [2, 5] | inhibition at 38.15 pM [2, 6] | inhibition at 38.15 pM [2, 7] | inhibition at 0.000152588 µM [2, 5] | inhibition at 0.000152588 µM [2, 6] | inhibition at 0.000152588 µM [2, 7] | inhibition at 0.000610352 µM [2, 5] | inhibition at 0.000610352 µM [2, 6] | inhibition at 0.000610352 µM [2, 7] | inhibition at 0.00976562 µM [2, 5] | inhibition at 0.00976562 µM [2, 6] | inhibition at 0.00976562 µM [2, 7] | inhibition at 0.0390625 µM [2, 5] | inhibition at 0.0390625 µM [2, 6] | inhibition at 0.0390625 µM [2, 7] | inhibition at 0.15625 µM [2, 5] | inhibition at 0.15625 µM [2, 6] | also measured
1 | CCc1c(N2CCN(C(=O)c3ncnc(C)c3O)CC2)c(=O)n2nc(-c3cc4c(s3)COC4)nc2n1CC(=O)Nc1ccc(C(F)(F)F)cc1Cl [P7] | 1.4 nM | 39 nM | > 10000 nM | 6.64% | 2.01% | 11.3% | 3.66% | -6.35% | 13.7% | 4.19% | -2.7% | 11.1% | 2.23% | -0.534% | 4.98% | 54.8% | 56% | 53.6% | 99% | 98.8% | TGI ([1]; 20 mg/kg): 82%; Tumor Volume D 1 ([1]; 20 mg/kg): 158 mm^3; Tumor volume D 21 ([1]; 20 mg/kg): 491 mm^3; TGI ([1]; 50 mg/kg): 105%; Tumor Volume D 1 ([1]; 50 mg/kg): 158 mm^3; Tumor volume D 21 ([1]; 50 mg/kg): 71 mm^3; TGI ([1]; 120 mg/kg): 105%; Tumor Volume D 1 ([1]; 120 mg/kg): 174 mm^3; Tumor volume D 21 ([1]; 120 mg/kg): 24 mm^3; inhibitory activity on SW48 cells [2]: high inhibitory activity; inhibition at 0.15625 µM [2, 7]: 99.2%; inhibition at 0.625 µM [2, 5]: 100%; inhibition at 0.625 µM [2, 6]: 100%; inhibition at 0.625 µM [2, 7]: 100%; inhibition at […] [2, 5]: 101%; inhibition at […] [2, 6]: 101%; inhibition at 10 µM [2, 5]: 101%; inhibition at 10 µM [2, 6]: 101%; inhibition at 10 µM [2, 7]: 101%
2 | CCc1c(N2CCN(C(=O)c3ncnc(C)c3O)CC2)c(=O)n2nc(-c3cc4c(s3)COC4)nc2n1CC(=O)Nc1ccc(C(F)(F)F)cc1C [P29] | 2.1 nM | 32 nM | > 10000 nM | 18.3% | 18% | 18.6% | 25.6% | 26.1% | 25.1% | 14.7% | 19.4% | 9.96% | 21.2% | 17.4% | 25.1% | 70.9% | 70.9% | 70.9% | 97.3% | 96.5% | TGI ([1]; 120 mg/kg): 105%; Tumor Volume D 1 ([1]; 120 mg/kg): 174 mm^3; Tumor volume D 21 ([1]; 120 mg/kg): 36 mm^3; inhibitory activity on SW48 cells [2]: high inhibitory activity; inhibition at 0.00244141 µM [2, 5]: 19.8%; inhibition at 0.00244141 µM [2, 6]: 12.8%; inhibition at 0.00244141 µM [2, 7]: 26.8%; inhibition at 0.15625 µM [2, 7]: 98.1%; inhibition at 0.625 µM [2, 5]: 99.4%; inhibition at 0.625 µM [2, 6]: 99.1%; inhibition at 0.625 µM [2, 7]: 99.6%; inhibition at […] [2, 5]: 99%; inhibition at […] [2, 6]: 99.1%; inhibition at […] [2, 7]: 99%; inhibition at 10 µM [2, 5]: 99.8%; inhibition at 10 µM [2, 6]: 100%; inhibition at 10 µM [2, 7]: 99.6%
3 | CCc1c(N2CCN(C(=O)c3ncnc(C)c3O)CC2)c(=O)n2nc(-c3cc4c(s3)COC4)nc2n1CC(=O)Nc1ccc(C(F)(F)F)cc1F [P32] | 1.5 nM | 126 nM | > 10000 nM |  |  |  |  |  |  |  |  |  |  |  |  |  |  |  |  |  | 
4 | CCc1c(N2CCN(C(=O)c3ncccc3O)CC2)c(=O)n2nc(-c3cc4cnn(C)c4s3)nc2n1CC(=O)Nc1ccc(C(F)(F)F)cc1Cl [P16] | 2.1 nM | 120 nM | > 10000 nM |  |  |  |  |  |  |  |  |  |  |  |  |  |  |  |  |  | 

Continued, in another order:

Row | IC50 (WRN enzyme) | IC50 [2] | IC50 [3] | Structure (SMILES) | inhibition at 38.15 pM [2, 5] | inhibition at 38.15 pM [2, 6] | inhibition at 38.15 pM [2, 7] | inhibition at 0.000152588 µM [2, 5] | inhibition at 0.000152588 µM [2, 6] | inhibition at 0.000152588 µM [2, 7] | inhibition at 0.000610352 µM [2, 5] | inhibition at 0.000610352 µM [2, 6] | inhibition at 0.000610352 µM [2, 7] | inhibition at 0.00976562 µM [2, 5] | inhibition at 0.00976562 µM [2, 6] | inhibition at 0.00976562 µM [2, 7] | inhibition at 0.0390625 µM [2, 5] | inhibition at 0.0390625 µM [2, 6] | inhibition at 0.0390625 µM [2, 7] | inhibition at 0.15625 µM [2, 5] | inhibition at 0.15625 µM [2, 6] | also measured
5 | 1.1 nM | 39 nM | > 10000 nM | CCc1c(N2CCN(C(=O)c3ncnc(C)c3O)CC2)c(=O)n2nc(-c3cc4c(s3)COC4)nc2n1CC(=O)Nc1ccc(Br)cc1Cl [P24] | -4.41% | -3.47% | -5.36% | -3.37% | -6.51% | -0.227% | -6.66% | -6.64% | -6.68% | -8.31% | -8.85% | -7.77% | 43.7% | 40.3% | 47.1% | 98.7% | 98.6% | TGI ([1]; 50 mg/kg): 105%; Tumor Volume D 1 ([1]; 50 mg/kg): 161 mm^3; Tumor volume D 21 ([1]; 50 mg/kg): 72 mm^3; inhibition at 0.00244141 µM [2, 5]: -5.26%; inhibition at 0.00244141 µM [2, 6]: -4.87%; inhibition at 0.00244141 µM [2, 7]: -5.64%; inhibition at 0.15625 µM [2, 7]: 98.8%; inhibition at 0.625 µM [2, 5]: 97.4%; inhibition at 0.625 µM [2, 6]: 97.6%; inhibition at 0.625 µM [2, 7]: 97.2%; inhibition at […] [2, 5]: 97.6%; inhibition at […] [2, 6]: 96.9%; inhibition at […] [2, 7]: 98.3%; inhibition at 10 µM [2, 5]: 97.3%; inhibition at 10 µM [2, 6]: 97.4%; inhibition at 10 µM [2, 7]: 97.3%
6 | 1.5 nM | 39 nM | > 10000 nM | CCc1c(N2CCN(C(=O)c3ncnc(C)c3O)CC2)c(=O)n2nc(-c3cc4c(s3)COC4)nc2n1CC(=O)Nc1ccc(Br)c2ccoc12 [P59] |  |  |  |  |  |  |  |  |  |  |  |  |  |  |  |  |  | F [4]: 41%; AUC(0-t) (in vivo; iv, 2 mg/kg): 2970 ng·h/mL; C0 (in vivo; iv, 2 mg/kg): 5260 ng/mL; clearance (in vivo; iv, 2 mg/kg): 11.2 mL/min/kg; half-life (in vivo; iv, 2 mg/kg): 54 min; AUC(0-t) (in vivo; po, 10 mg/kg): 6070 ng·h/mL; Cmax (in vivo; po, 10 mg/kg): 2850 ng/mL; Tmax (in vivo; po, 10 mg/kg): 15 min; half-life (in vivo; po, 10 mg/kg): 78 min
7 | 1.7 nM | 39 nM | > 10000 nM | CCc1c(N2CCN(C(=O)c3ncnc(C)c3O)CC2)c(=O)n2nc(-c3cc4c(s3)COC4)nc2n1CC(=O)Nc1ccc(Br)cc1C [P25] |  |  |  |  |  |  |  |  |  |  |  |  |  |  |  |  |  | 
